Test results: PubChem BioAssay (NCI)
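Where inhibition never reached the appropriate level, the endpoint shown equals the highest concentration tested. Otherwise, values were interpolated linearly from a five-concentration, 48-hour dose response in 96-well plates. GI50 = concentration required for 50% inhibition of growth. TGI denotes the concentration required for complete inhibition of growth.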

Columns and labels:
Assay in all cases: NCI tumour cell line growth inhibition, 48 h
[1] = test system: 786-0 renal
[2] = test system: A498 renal
[3] = test system: A549 NSCLC
[4] = test system: ACHN renal
[5] = test system: BT-549 breast
[6] = test system: CAKI-1 renal
[7] = test system: CCRF-CEM leukemia
[8] = test system: COLO 205 colon
[9] = test system: DU-145 prostate
[10] = test system: EKVX NSCLC
[11] = test system: HCC-2998 colon
[12] = test system: HCT-116 colon
[13] = test system: HCT-15 colon
[14] = test system: HL-60(TB) leukemia
[15] = test system: HOP-62 NSCLC
[16] = test system: HOP-92 NSCLC
[17] = test system: HS 578T breast
[18] = test system: HT29 colon
[19] = test system: IGROV1 ovarian
[20] = test system: K-562 leukemia
[21] = test system: KM12 colon
[22] = test system: LOX IMVI melanoma
[23] = test system: M14 melanoma
[24] = test system: MALME-3M melanoma
[25] = test system: MCF7 breast
[26] = test system: MDA-MB-231 breast
[27] = test system: MDA-MB-435
[28] = test system: MOLT-4 leukemia
[29] = test system: NCI-H226 lung
[30] = test system: NCI-H23 lung
[31] = test system: NCI-H460 lung
[32] = test system: NCI-H522 lung
[33] = test system: NCI/ADR-RES ovarian
[34] = test system: OVCAR-3 ovarian
[35] = test system: OVCAR-4 ovarian
[36] = test system: OVCAR-5 ovarian
[37] = test system: OVCAR-8 ovarian
[38] = test system: PC-3 prostate
[39] = test system: RXF 393 renal
[40] = test system: SF-268 CNS
[41] = test system: SF-295 CNS
[42] = test system: SF-539 CNS
[43] = test system: SK-MEL-2 melanoma
[44] = test system: SK-MEL-28 melanoma
[45] = test system: SK-MEL-5 melanoma
[46] = test system: SK-OV-3 ovarian
[47] = test system: SN12C renal
[48] = test system: SNB-19 CNS
[49] = test system: SNB-75 CNS
[50] = test system: SW-620 colon
[51] = test system: T-47D breast
[52] = test system: TK-10 renal
[53] = test system: U251 CNS
[54] = test system: UACC-257 melanoma
[55] = test system: UACC-62 melanoma
[56] = test system: UO-31 renal

O=C(Nc1ccc2ncnc(Nc3ccc(Oc4cccc(F)c4)c(Cl)c3)c2c1)c1ccc(CN2CCOCC2)cc1
GI50 [1]: 1.97 µM
TGI [1]: 4.33 µM
GI50 [2]: 3.28 µM
TGI [2]: 65.6 µM
GI50 [3]: 2.35 µM
TGI [3]: 10.3 µM
GI50 [4]: 2.26 µM
TGI [4]: 9.55 µM
GI50 [5]: 2.3 µM
TGI [5]: 7.56 µM
GI50 [6]: 2.18 µM
TGI [6]: 10.5 µM
GI50 [7]: 2.95 µM
TGI [7]: 20.7 µM
GI50 [8]: 2.56 µM
TGI [8]: 8.34 µM
GI50 [9]: 3.14 µM
TGI [9]: 15.8 µM
GI50 [10]: 1.86 µM
TGI [10]: 38.2 µM
GI50 [11]: 3.14 µM
TGI [11]: 18.6 µM
GI50 [12]: 2.55 µM
TGI [12]: 8.94 µM
GI50 [13]: 2.49 µM
TGI [13]: 8.85 µM
GI50 [14]: 2.69 µM
TGI [14]: 7.88 µM
GI50 [15]: 2.58 µM
TGI [15]: 8.47 µM
GI50 [16]: 2.38 µM
TGI [16]: 15.4 µM
GI50 [17]: 1.96 µM
TGI [17]: 7.04 µM
GI50 [18]: 2.97 µM
TGI [18]: 11.7 µM
GI50 [19]: 1.4 µM
TGI [19]: 5.5 µM
GI50 [20]: 2.47 µM
TGI [20]: 11.7 µM
GI50 [21]: 2.57 µM
TGI [21]: 7.66 µM
GI50 [22]: 2.24 µM
TGI [22]: 5.33 µM
GI50 [23]: 2.03 µM
TGI [23]: 4.68 µM
GI50 [24]: 2.01 µM
TGI [24]: 5.2 µM
GI50 [25]: 1.83 µM
TGI [25]: 5.64 µM
GI50 [26]: 2.68 µM
TGI [26]: 9.03 µM
GI50 [27]: 2.18 µM
TGI [27]: 5.39 µM
GI50 [28]: 1.8 µM
TGI [28]: 4.98 µM
GI50 [29]: 5.12 µM
TGI [29]: 33.7 µM
GI50 [30]: 2.09 µM
TGI [30]: 5.89 µM
GI50 [31]: 2.39 µM
TGI [31]: 6.39 µM
GI50 [32]: 0.654 µM
TGI [32]: 4.01 µM
GI50 [33]: 2.33 µM
TGI [33]: 7.16 µM
GI50 [34]: 2.16 µM
TGI [34]: 7 µM
GI50 [35]: 2.53 µM
TGI [35]: 8.52 µM
GI50 [36]: 4.5 µM
TGI [36]: 23.4 µM
GI50 [37]: 2.34 µM
TGI [37]: 7.69 µM
GI50 [38]: 2.24 µM
TGI [38]: 10.6 µM
GI50 [39]: 2.02 µM
TGI [39]: 5.83 µM
GI50 [40]: 2.6 µM
TGI [40]: 18.1 µM
GI50 [41]: 2.66 µM
TGI [41]: 10.3 µM
GI50 [42]: 2.51 µM
TGI [42]: 6.99 µM
GI50 [43]: 2.27 µM
TGI [43]: 5.46 µM
GI50 [44]: 2.62 µM
TGI [44]: 9.38 µM
GI50 [45]: 1.74 µM
TGI [45]: 3.25 µM
GI50 [46]: 1.66 µM
TGI [46]: > 100 µM
GI50 [47]: 2.6 µM
TGI [47]: > 100 µM
GI50 [48]: 3.53 µM
TGI [48]: > 100 µM
GI50 [49]: 1.97 µM
TGI [49]: 9.22 µM
GI50 [50]: 3.21 µM
TGI [50]: 11.2 µM
GI50 [51]: 1.09 µM
TGI [51]: 4.2 µM
GI50 [52]: 3.08 µM
TGI [52]: 13.5 µM
GI50 [53]: 2.96 µM
TGI [53]: 17.7 µM
GI50 [54]: 2.36 µM
TGI [54]: 7.1 µM
GI50 [55]: 1.78 µM
TGI [55]: 3.43 µM
GI50 [56]: 1.81 µM
TGI [56]: 8.59 µM
